These results are taken from patent US20050070510A1, “Substituted tetracycline compounds as synergistic antifungal agents” (Paratek Pharmaceuticals, Inc., priority 2001, published 2005).

Structures are written as SMILES.

The data set has as its system COS-1 cells. The experiment in a line: In vitro mammalian cytotoxicity assay (Resazurin). A general note: Alamar Blue is a resazurin reagent that responds to reducing activity.
For `CN(C)[C@@H]1C(O)=C(C(N)=O)C(=O)[C@@]2(C#N)C(O)=C3C(=O)c4c(O)ccc(CNC(=O)OCC(C)(C)C)c4C[C@@]3(N)C[C@@]12N` [NP], the “In Vitro Cytotoxicity” value is “** (toxicities less than 25 μg/mL are represented by **)”. Turning to `CN(C)[C@@H]1C(O)=C(C(N)=O)C(=O)[C@@]2(C#N)C(O)=C3C(=O)c4c(O)ccc(I)c4[C@H](N)[C@@]3(N)[C@H](OC(=O)C3CCCCC3)[C@@]12N` [CV], the “In Vitro Cytotoxicity” value is recorded as “** (toxicities less than 25 μg/mL are represented by **)”. Regarding `COc1ccc(Cl)cc1-c1ccc(O)c2c1C[C@@]1(N)C[C@@]3(N)[C@H](N(C)C)C(O)=C(C(N)=O)C(=O)[C@@]3(C#N)C(O)=C1C2=O` [GL], the “In Vitro Cytotoxicity” value is “** (toxicities less than 25 μg/mL are represented by **)”.

For `CC(C)COC(=O)Nc1cc(N(C)C)c2c(c1O)C(=O)C1=C(O)[C@]3(C#N)C(=O)C(C(N)=O)=C(O)[C@@H](N(C)C)[C@]3(N)C[C@]1(N)C2` [KQ], the “In Vitro Cytotoxicity” value is “** (toxicities less than 25 μg/mL are represented by **)”. Consider `COc1ccc(CNc2cc(N(C)C)c3c(c2O)C(=O)C2=C(O)[C@]4(C#N)C(=O)C(C(N)=O)=C(O)[C@@](N)(N(C)C)[C@]4(N)C[C@]2(N)C3)cc1O` [TW], for which the “In Vitro Cytotoxicity” value is recorded as “* (toxicities greater than >25 μg/ml are represented by *)”.

Take `CN(C)c1cc(-c2ccc(C(N)=O)cc2)c(O)c2c1C[C@@]1(N)C[C@@]3(N)[C@H](N(C)C)C(O)=C(C(N)=O)C(=O)[C@@]3(C#N)C(O)=C1C2=O` [ET]: the “In Vitro Cytotoxicity” value is “** (toxicities less than 25 μg/mL are represented by **)”. For `CN(C)[C@@H]1C(O)=C(C(N)=O)C(=O)[C@@]2(C#N)C(O)=C3C(=O)c4c(ccc(-c5ccc(F)cc5)c4O)[C@H](N)[C@@]3(N)[C@H](O)[C@@]12N` [BR], the “In Vitro Cytotoxicity” value is given as “** (toxicities less than 25 μg/mL are represented by **)”. For `CCSC(=O)/C=C/c1ccc2c(c1O)C(=O)C1=C(O)[C@]3(C#N)C(=O)C(C(N)=O)=C(O)[C@@H](N(C)C)[C@]3(N)[C@@H](O)[C@]1(N)[C@H]2O` [AT], the “In Vitro Cytotoxicity” value was “** (toxicities less than 25 μg/mL are represented by **)”. `Cc1noc(C)c1S(=O)(=O)NCc1cc(N(C)C)c2c(c1O)C(=O)C1=C(O)[C@]3(C#N)C(=O)C(C(N)=O)=C(O)[C@@H](N(C)C)[C@]3(N)C[C@]1(N)C2` [TJ]: the “In Vitro Cytotoxicity” value is recorded as “* (toxicities greater than >25 μg/ml are represented by *)”. The entry for `CN(C)[C@@H]1C(O)=C(C(N)=O)C(=O)[C@@]2(C#N)C(O)=C3C(=O)c4c(ccc(-c5cc6ccccc6[nH]5)c4O)[C@H](N)[C@@]3(N)[C@H]([S+](N)[O-])[C@@]12N` (stereo partly drawn) [BT] is “** (toxicities less than 25 μg/mL are represented by **)”. Regarding `CCCCC#Cc1ccc(O)c2c1C[C@@]1(N)C[C@@]3(N)[C@H](N(C)C)C(O)=C(C(N)=O)C(=O)[C@@]3(C#N)C(O)=C1C2=O` [IG], the “In Vitro Cytotoxicity” value is reported as “** (toxicities less than 25 μg/mL are represented by **)”. On to `CC(=O)c1ccc(/C=C2\c3cccc(O)c3C(=O)C3=C(O)[C@]4(C#N)C(=O)C(C(N)=O)=C(O)[C@@H](N(C)C)[C@]4(N)[C@@H](O)[C@@]32N)cc1` [DE], for which the “In Vitro Cytotoxicity” value is listed as “** (toxicities less than 25 μg/mL are represented by **)”. The result for `CN(C)Cc1ccc(-c2ccc(O)c3c2C[C@@]2(N)C[C@@]4(N)[C@H](N(C)C)C(O)=C(C(N)=O)C(=O)[C@@]4(C#N)C(O)=C2C3=O)cc1` [HR] reads “* (toxicities greater than >25 μg/ml are represented by *)”. The entry for `CN(C)[C@@H]1C(O)=C(C(N)=O)C(=O)[C@@]2(C#N)C(O)=C3C(=O)c4c(O)cccc4/C(=C\c4cccc(C(N)=O)c4)[C@@]3(N)[C@H](O)[C@@]12N` [CK] is “* (toxicities greater than >25 μg/ml are represented by *)”; for `CN(C)[C@@H]1C(O)=C(C(N)=O)C(=O)[C@@]2(C#N)C(O)=C3C(=O)c4c(O)cccc4[C@H](N)[C@@]3(N)[C@H]([S+](N)[O-])[C@@]12N` (stereo partly drawn) [BS] it is “** (toxicities less than 25 μg/mL are represented by **)”; for `CCNC(=O)CNC(=O)c1cccc(-c2ccc(O)c3c2C[C@@]2(N)C[C@@]4(N)[C@H](N(C)C)C(O)=C(C(N)=O)C(=O)[C@@]4(C#N)C(O)=C2C3=O)c1` [PD] it is “* (toxicities greater than >25 μg/ml are represented by *)”.

In the case of `CN(C)[C@@H]1C(O)=C(C(N)=O)C(=O)[C@@]2(C#N)C(O)=C3C(=O)c4c(O)ccc(OC5=CC(c6cccc([N+](=O)O)c6)=CC5)c4C[C@@]3(N)C[C@@]12N` [EC], the “In Vitro Cytotoxicity” value is “* (toxicities greater than >25 μg/ml are represented by *)”.

For `COc1ccc(CNCc2cccc(Cl)c2)cc1-c1ccc(O)c2c1C[C@@]1(N)C[C@@]3(N)[C@H](N(C)C)C(O)=C(C(N)=O)C(=O)[C@@]3(C#N)C(O)=C1C2=O` [NJ], the “In Vitro Cytotoxicity” value is “** (toxicities less than 25 μg/mL are represented by **)”. As to `CN(C)Cc1cccc(-c2ccc(O)c3c2C[C@@]2(N)C[C@@]4(N)[C@H](N(C)C)C(O)=C(C(N)=O)C(=O)[C@@]4(C#N)C(O)=C2C3=O)c1` [HQ], the “In Vitro Cytotoxicity” value is “* (toxicities greater than >25 μg/ml are represented by *)”. For `CN(C)c1cc(NC(=O)Nc2cc(C(F)(F)F)cc(C(F)(F)F)c2)c(O)c2c1C[C@@]1(N)C[C@@]3(N)[C@H](N(C)C)C(O)=C(C(N)=O)C(=O)[C@@]3(C#N)C(O)=C1C2=O` [IL], the “In Vitro Cytotoxicity” value is given as “** (toxicities less than 25 μg/mL are represented by **)”.

For the compound `C=CCOC(=O)Nc1ccc(-c2ccc(O)c3c2C[C@@]2(N)C[C@@]4(N)[C@H](N(C)C)C(O)=C(C(N)=O)C(=O)[C@@]4(C#N)C(O)=C2C3=O)cc1` [OZ], the “In Vitro Cytotoxicity” value is “** (toxicities less than 25 μg/mL are represented by **)”. The entry for `CN(C)[C@@H]1C(O)=C(C(N)=O)C(=O)[C@@]2(C#N)C(O)=C3C(=O)c4c(O)ccc(C=C5CCC5)c4C[C@@]3(N)C[C@@]12N` [FS] is “** (toxicities less than 25 μg/mL are represented by **)”.

As to `CC(C)COC(=O)NCc1ccc(-c2ccc(O)c3c2C[C@@]2(N)C[C@@]4(N)[C@H](N(C)C)C(O)=C(C(N)=O)C(=O)[C@@]4(C#N)C(O)=C2C3=O)cc1` [NS], the “In Vitro Cytotoxicity” value is “** (toxicities less than 25 μg/mL are represented by **)”.

`CC(C)CNCc1cc(N(C)C)c2c(c1O)C(=O)C1=C(O)[C@]3(C#N)C(=O)C(C(N)=O)=C(O)[C@@H](N(C)C)[C@]3(N)C[C@]1(N)C2` [ML]: the “In Vitro Cytotoxicity” value was “* (toxicities greater than >25 μg/ml are represented by *)”. Regarding `CN(C)c1cc(CNC(=O)Nc2ccc(F)cc2)c(O)c2c1C[C@@]1(N)C[C@@]3(N)[C@H](N(C)C)C(O)=C(C(N)=O)C(=O)[C@@]3(C#N)C(O)=C1C2=O` [MY], the “In Vitro Cytotoxicity” value is given as “** (toxicities less than 25 μg/mL are represented by **)”. `CN(C)CC(=O)Nc1ccc2c(c1O)C(=O)C1=C(O)[C@]3(C#N)C(=O)C(C(N)=O)=C(O)[C@@H](N(C)C)[C@]3(N)C[C@]1(N)C2` [KU]: the “In Vitro Cytotoxicity” value is on record as “* (toxicities greater than >25 μg/ml are represented by *)”.

On to `CN(C)c1cc(CNC(=O)NCC(C)(C)C)c(O)c2c1C[C@@]1(N)C[C@@]3(N)[C@H](N(C)C)C(O)=C(C(N)=O)C(=O)[C@@]3(C#N)C(O)=C1C2=O` [MC], for which the “In Vitro Cytotoxicity” value was “* (toxicities greater than >25 μg/ml are represented by *)”. For the compound `CCCN(CCC)Cc1ccc(-c2ccc(O)c3c2C[C@@]2(N)C[C@@]4(N)[C@H](N(C)C)C(O)=C(C(N)=O)C(=O)[C@@]4(C#N)C(O)=C2C3=O)c2ccccc12` [OP], the “In Vitro Cytotoxicity” value is reported as “** (toxicities less than 25 μg/mL are represented by **)”. As to `COC(=O)C(CO)NC(=O)c1cccc(-c2ccc(O)c3c2C[C@@]2(N)C[C@@]4(N)C(N(C)C)C(O)=C(C(N)=O)C(=O)[C@@]4(C#N)C(O)=C2C3=O)c1` (stereo partly drawn) [QT], the “In Vitro Cytotoxicity” value is recorded as “** (toxicities less than 25 μg/mL are represented by **)”. Take `CN(C)[C@@H]1C(O)=C(C(N)=O)C(=O)[C@@]2(C#N)C(O)=C3C(=O)c4c(O)cccc4/C(=C\c4ccc(F)cc4)[C@@]3(N)[C@H](O)[C@@]12N` [DS]: the “In Vitro Cytotoxicity” value was “** (toxicities less than 25 μg/mL are represented by **)”. On to `CN(C)[C@@H]1C(O)=C(C(N)=O)C(=O)[C@@]2(C#N)C(O)=C3C(=O)c4c(O)ccc(-c5cccc(CNCc6ccccc6)c5)c4C[C@@]3(N)C[C@@]12N` [HN], for which the “In Vitro Cytotoxicity” value is recorded as “** (toxicities less than 25 μg/mL are represented by **)”. For `COC(CN(Cc1ccc(O)c2c1C[C@@]1(N)C[C@@]3(N)[C@H](N(C)C)C(O)=C(C(N)=O)C(=O)[C@@]3(C#N)C(O)=C1C2=O)CC(OC)OC)OC` [SG], the “In Vitro Cytotoxicity” value is given as “* (toxicities greater than >25 μg/ml are represented by *)”. Consider `CN(C)[C@@H]1C(O)=C(C(N)=O)C(=O)[C@@]2(C#N)C(O)=C3C(=O)c4c(O)ccc(-c5ccc(NC(=O)CBr)cc5)c4C[C@@]3(N)C[C@@]12N` [UV], for which the “In Vitro Cytotoxicity” value was “** (toxicities less than 25 μg/mL are represented by **)”. On to `C=CCNc1ccc2c(c1O)C(=O)C1=C(O)[C@]3(C#N)C(=O)C(C(N)=O)=C(O)[C@@H](N(C)C)[C@]3(N)[C@@H](O)[C@]1(N)[C@H]2N` [CI], for which the “In Vitro Cytotoxicity” value is given as “** (toxicities less than 25 μg/mL are represented by **)”. As to `COC(=O)c1ccc(O)c2c1C[C@@]1(N)C[C@@]3(N)[C@H](N(C)C)C(O)=C(C(N)=O)C(=O)[C@@]3(C#N)C(O)=C1C2=O` [RV], the “In Vitro Cytotoxicity” value is reported as “** (toxicities less than 25 μg/mL are represented by **)”.

As for `CN(C)[C@@H]1C(O)=C(C(N)=O)C(=O)[C@@]2(C#N)C(O)=C3C(=O)c4c(O)ccc(-c5ccc(C(C)(C)C)cc5)c4C[C@@]3(N)C[C@@]12N` [GK], the “In Vitro Cytotoxicity” value is reported as “** (toxicities less than 25 μg/mL are represented by **)”. Regarding `CN(C)c1cc(CNCc2ccccc2)c(O)c2c1C[C@@]1(N)C[C@@]3(N)[C@H](N(C)C)C(O)=C(C(N)=O)C(=O)[C@@]3(C#N)C(O)=C1C2=O` [TH], the “In Vitro Cytotoxicity” value is given as “* (toxicities greater than >25 μg/ml are represented by *)”.

Regarding `CN(C)c1cc(CNC(=O)C(Cc2ccccc2)N(C)C)c(O)c2c1C[C@@]1(N)C[C@@]3(N)[C@H](N(C)C)C(O)=C(C(N)=O)C(=O)[C@@]3(C#N)C(O)=C1C2=O` (stereo partly drawn) [SU], the “In Vitro Cytotoxicity” value is on record as “** (toxicities less than 25 μg/mL are represented by **)”.

As to `CC(=O)OCC(=O)Nc1ccc(-c2ccc(O)c3c2C[C@@]2(N)C[C@@]4(N)[C@H](N(C)C)C(O)=C(C(N)=O)C(=O)[C@@]4(C#N)C(O)=C2C3=O)cc1` [UR], the “In Vitro Cytotoxicity” value is “** (toxicities less than 25 μg/mL are represented by **)”.
